From patent US6455593B1, “Method of dynamic retardation of cell cycle kinetics to potentiate cell damage” (priority 1995, dated 2002)
pIC50: −log10 of the molar value.

Assays:
U937 cells [1] = assay: DNA gel electrophoresis for DNA fragmentation (apoptosis); assay type: cell-based, human
Method: Samples of the U937 cells were exposed to a series of concentrations of dThd for 24 hr. Their DNA was isolated by lysis of cell samples in TE buffer containing TRIS 10 mM, EDTA 10 mM, SDS 0.5% and proteinase K 200 μg/ml at […] for 2 h. The proteins were precipitated in a IM solution of NaCl and centrifuged at 2,500×g for 30 min at […] DNAse free RNase (25 μg/ml) was added to the supernatant and incubated for 30 min at 37° C. Spectrophotometric quantitation of the DNA in the supernatant was quantitated by absorbance spectrophotometry at 260 nm. Volumes adjusted to contain equal amounts of DNA were mixed with a loading buffer of 40% (w/v) sucrose, 0.1M EDTA pH 8.0, 0.5% (w/v) sodium lauryl sulphate and 0.05% (w/v) bromophenol blue. […] Separated bands of DNA were stained with ethidium bromide and photographed in UV light (Fotodyne Inc.). […] The lowest molecular weight (about 180 bp) was determined with a standard 123 bp ladder from Sigma Chemical Co. (Cat. #D5042). The result shown is a classical “DNA ladder,” characteristic of the fragmentation of DNA macromolecules in apoptosis. See Tomei, supra; Obeid, supra; Gold, supra.

[2] = tested on: human promonocytic lymphoma cells (U937); assay: Microculture indicator system (MIS), MTT growth inhibition assay with bivariate serial dilutions; assay type: cell-based
Method: Microcultures of human promonocytic lymphoma cells (U937) (“the U937 cells”) originally obtained from the American Type Culture Collection (CRL 1593) and later grown by Dr. K. Zoon at the FDA in Bethesda, Md. were set up in a multiwell plate with serial two-fold dilutions of dThd in tissue culture growth medium (RPMI 1640 plus 10% Nurserum and antibiotics). The volume of medium per well was 100 μl and the cell number per well was about 1×10^5. The plate was incubated at 37° C. for 24 hr.
A dye, 3-[4,5-dimethylthiazol-2-yl]-2,5-diphenyl-tetrazolium bromide (MTT), was used as a chromogenic indicator of the metabolically active cell mass. Viable cells metabolize the dye and accumulate a reduced formazan product (blue color) which is solubilized for colorimetry. Mossman T, J. Immunol. Methods 5:55-63 (1983); Li L and Lau B H S, In Vitro Cell Dev. Biol. 29A:531-536 (1993). The MTT assay has been established as useful for measuring either growth inhibition or population killing. Plowman, supra. The MTT method is ideal for cells tested in suspension growth, and can also be used for some cells growing in monolayers. […] Alley, supra; Hofs, supra; Wilson J K et al., Br. J. Cancer 62:189-94 (1990); Plowman, supra.
Thirty μl of 0.5% MTT in phosphate buffered saline was added to each microculture well at the appropriate time. After incubation at 37° C. for 3 hr, 120 μl of an aqueous solution of 10 % SDS with 0.01 N HCl was added to release and dissolve formazan product. This was accomplished by overnight incubation of the plate at 37° C. After careful mixing of the microwell contents by placing the plates on an orbital shaker for 5 minutes the absorbencies were quantitated by spectrophotometry at 570 nm with a Ceres UV 900 HDI microwell plate reader (from Biotek Instruments Inc, Winooski, Vt. 05404-0998). Absorbance data was normalized to a blank well containing all reagents without cells and was collected semi-automatically.
Flat-bottom 96-well plates of tissue culture quality (Corning or Costar) were set up with two-fold serial dilutions of each agent to be tested, e.g., the RA and TCI, using a multichannel pipettor with adjustable volume, e.g., Costar or Rainin, to perform serial mixing. This set-up is diagrammed in FIG. 12. […] In each plate, a total of 59 wells then contained bivariate agent combinations, the bivariate serial dilutions.
Agents were serially diluted by serial mixing in two separate plates or series of wells, and then were combined prior to addition of a fixed volume and density of the U937 cells in a suspension calculated to deliver about 1×10^5 cells per well.
Cells were added after serial dilutions of the dThd had been dispensed. Cells were dispensed at about 10×10^4 cells per microwell to provide optimal sensitivity of detection of cell damage in subsequent calorimetric assays. […] The final volume of medium was 100 μl/well. The plates were further incubated at 37° C. for a total duration of 18-24 h. The dye MTT was used as a chromogenic indicator of the residual and metabolically active cell mass. (Described in Example 1).
In this MTT assay, normalized absorbance data was collected semi-automatically from each microculture well with a Ceres UV 900 HD1 plate reader, from Biotek Instruments Inc., Winooski, V T 05404-0998, stored in an EIA file under the Ceres 900 program, transferred in comma delimited format to a floppy diskette, and imported into a spread sheet program (Borland Quattro Pro) for data manipulations.

U937 cells [3] = assay: Flow cytometric cell cycle analysis (propidium iodide); assay type: cell-based, human
Method: Flow cytometric analyses were performed with a Coulter Epics System (purchased from Coulter Corp, Hialeah, Fla.). Cells were disrupted in buffer with 0.1% Triton-X 100 (or 0.6 % NP-40), so that the nuclei could be stained with 0.05% propidium iodide (PI). See Shapiro N M, Practical Flow Cytometry, Man R Liss, NY (1988); Nicoletti I et al., J Immunol Methods 139:271-9 (1991). Analyses of 10,000 nuclei were performed with graduated concentrations of dThd at serial time points. Histograms of PI fluorescent emissions at 675±10 nm were used to discriminate cell cycle fractions of the target population. The proportion of cells in each phase of the cell cycle is represented by stack bars above the X-axis as a fraction of those cells with intact DNA structure. The fraction of cells with depleted DNA in each sample is represented below the X-axis as a percentage of the total cell number. Cells with depleted DNA are presumed apoptotic. Crompton S T et. al. Biophys. Biochem. Res. Comm. 183:532-537 (1992). Each stack bar in FIG. 5 represents the cell cycle distribution of a population sample of >10,000 cells, analyzed for each indicated dThd concentration at indicated treatment times.
Flow cytometric analyses were performed as in Example 2. The results are shown in plot A of FIG. 5 from Example 2.
The U937 cells were exposed to a range of concentrations below the IC40 and sampled for flow cytometry at intervals of 8, 16, and 24 hours. Flow cytometric analysis was performed as described in Example 2.

p. falciparum W2 = assay: Parasite growth by 3H-hypoxanthine uptake in infected erythrocytes; assay type: cell-based; conditions: Plasmodium falciparum, W2, Erythrocyte; 24 hr after RBC infection, 3H-hypoxanthine uptake; read-out: inhibitory concentrations (IC50), strain W2
p. falciparum D6 = assay: as above; assay type: cell-based; conditions: Plasmodium falciparum, D6, Erythrocyte; 24 hr after RBC infection, 3H-hypoxanthine uptake; read-out: inhibitory concentrations (IC50), strain D6
[4] = tested on: Burkitt's lymphoma cell line Raji; assay: MIS MTT growth inhibition assay; assay type: cell-based, human; conditions: total 24 Hours
[5] = after oral ingestion; cited from earlier work
[6] = Homo sapiens, U-937, 4 h, U937, HU […] 4 H, K252a 0, read-out: MTT % inhibition, HU only

Compound: Nc1ccn([C@H]2C[C@H](O)[C@@H](CO)O2)c(=O)n1 [dCyt, deoxycytidine]
- Effect on DNA fragmentation by dThd and STSP (U937 cells [1]; dCyt added to U937 cultures treated with dThd and STSP): decreased DNA fragmentation

Compound: CCCCCCCCCCCCCC(=O)O[C@@H]1[C@@H](C)[C@@]2(O)[C@@H](C=C(CO)C[C@]3(O)C(=O)C(C)=C[C@@H]23)[C@H]2C(C)(C)[C@]12OC(C)=O [TPA, 12-0-tetradecanoyl-phorbol-13-acetate]
- Effect on dThd potentiation of STSP DNA fragmentation (U937 cells [1]; 10 nM TPA 48 hours differentiation, then dThd […], STSP 25 nM 7 hours): significantly reduced dThd potentiation of DNA fragmentation during STSP treatment

Compound: NC(=O)NO [HU, hydroxyurea]
- inhibition at 10 µM ([2]; Homo sapiens, U-937, 4 h, U937, HU 0.01 mM 4 H, K252a 0, read-out: MTT % inhibition, HU only): -1%
- inhibition at 20 µM ([2]; Homo sapiens, U-937, 4 h, U937, HU 0.02 mM 4 H, K252a 0, read-out: MTT % inhibition, HU only): -1%
- inhibition at 30 µM ([2]; Homo sapiens, U-937, 4 h, U937, HU 0.03 mM 4 H, K252a 0, read-out: MTT % inhibition, HU only): 1%
- inhibition at 60 µM ([2]; Homo sapiens, U-937, 4 h, U937, HU 0.06 mM 4 H, K252a 0, read-out: MTT % inhibition, HU only): 9%
- inhibition at 500 µM ([2]; Homo sapiens, U-937, 4 h, U937, HU 0.50 mM 4 H, K252a 0, read-out: MTT % inhibition, HU only): 48%
- inhibition at 1000 µM ([2]; Homo sapiens, U-937, 4 h, U937, HU 1.00 mM 4 H, K252a 0, read-out: MTT % inhibition, HU only): 52%
- inhibition at 2000 µM ([2]; Homo sapiens, U-937, 4 h, U937, HU 2.00 mM 4 H, K252a 0, read-out: MTT % inhibition, HU only): 59%
- inhibition at 130 µM [2, 6]: 20%
- inhibition at 250 µM [2, 6]: 36%
- Enhancement of DEET-induced apoptosis as prospective RA ([2]; MTT tests, about 0.05 to 3 mM, preliminary results): no significant enhancement of the DEET-induced apoptosis
- MTT % inhibition, HU only ([2]; U937, HU 0.00 mM (so in the source) 4 H, K252a 0): −2%
- Cells that became DNA depleted (U937 cells [3]; 0.125-1 mM HU, up to 16 hr, U937): no more than 20%
- Cells with depleted DNA (U937 cells [3]; HU>1 mM (2 mM at 24 hr), U937): a major increase in cells with depleted DNA became evident
- pIC50 (p. falciparum W2): 3.66
- pIC50 (p. falciparum D6): 3.76
- Growth Inhibition ([4]; HU only 0.00 mM): −3%
- Growth Inhibition ([4]; HU only 0.01 mM): −0%
- Growth Inhibition ([4]; HU only 0.02 mM): −7%
- Growth Inhibition ([4]; HU only 0.03 mM): −7%
- Growth Inhibition ([4]; HU only 0.05 mM): −7%
- Growth Inhibition ([4]; HU only 0.50 mM): 0%
- Growth Inhibition ([4]; HU only 1.00 mM): 0%
- Growth Inhibition ([4]; HU only 2.00 mM): 17%
- Time of blood level peak [5]: 2 to 4 h

Compound: O=c1[nH]c(=O)n([C@H]2C[C@H](O)[C@@H](CO)O2)cc1Br [BrdU, bromodeoxyuridine]
- RA concentration for STSP potentiation relative to concentration causing cell cycle arrest ([2]; U937): at least one log lower
- Growth inhibition (MTT), BrdU 0.01 mM (ninth dilution) ([2]; U937, BrdU 0.01 mM (c19) for 4 H, STSP for 18 H, total 22 H, STSP nM rows r7-r12: 200,100,60,26,12.6,6.25, r14 BrdU alone): 4%
- Growth inhibition (MTT), BrdU 0.01 mM (tenth, last dilution) ([2]; U937, BrdU 0.01 mM (c21, last dilution) for 4 H, STSP for 18 H, total 22 H, STSP nM rows r7-r12: 200,100,60,26,12.6,6.25, r14 BrdU alone): 4%
- Combined results ratio (CRR), BrdU 0.02 mM ([2]; U937, BrdU 0.02 mM for 4 H, STSP for 18 H, total 22 H, STSP nM rows r7-r12: 200,100,60,26,12.6,6.25, r13 BrdU alone): 1.0
- Growth inhibition (MTT), BrdU 0.02 mM ([2]; U937, BrdU 0.02 mM for 4 H, STSP for 18 H, total 22 H, STSP nM rows r7-r12: 200,100,60,26,12.6,6.25, r14 BrdU alone): 5%
- Combined results ratio (CRR), BrdU 0.06 mM ([2]; U937, BrdU 0.06 mM for 4 H, STSP for 18 H, total 22 H, STSP nM rows r7-r12: 200,100,60,26,12.6,6.25, r13 BrdU alone): 1.0
- Growth inhibition (MTT), BrdU 0.06 mM ([2]; U937, BrdU 0.06 mM for 4 H, STSP for 18 H, total 22 H, STSP nM rows r7-r12: 200,100,60,26,12.6,6.25, r14 BrdU alone): 10%
- Combined results ratio (CRR), BrdU 0.09 mM ([2]; U937, BrdU 0.09 mM for 4 H, STSP for 18 H, total 22 H, STSP nM rows r7-r12: 200,100,60,26,12.6,6.25, r13 BrdU alone): 1.0
- Growth inhibition (MTT), BrdU 0.09 mM ([2]; U937, BrdU 0.09 mM for 4 H, STSP for 18 H, total 22 H, STSP nM rows r7-r12: 200,100,60,26,12.6,6.25, r14 BrdU alone): 21%
- Combined results ratio (CRR), BrdU 3.00 mM ([2]; U937, BrdU 3.00 mM for 4 H, STSP for 18 H, total 22 H, STSP nM rows r7-r12: 200,100,60,26,12.6,6.25, r13 BrdU alone): 1.0
- Growth inhibition (MTT), BrdU 3.00 mM ([2]; U937, BrdU 3.00 mM for 4 H, STSP for 18 H, total 22 H, STSP nM rows r7-r12: 200,100,60,26,12.6,6.25, r14 BrdU alone): 61%
- Combined results ratio (CRR), BrdU […] ([2]; U937, BrdU […] for 4 H, STSP for 18 H, total 22 H, STSP nM rows r7-r12: 200,100,60,26,12.6,6.25, r13 BrdU alone): 1.0
- Effect on S phase (U937 cells [3]; bivariate flow cytometry, PI and fluorescein-labelled antibody to BrdU): produced a slowing of S phase similar to that caused by dThd

Compound: bleomycin
- Combined results ratio, bleomycin only ([2]; MTT #523, total 20 Hours, bleomycin 16 Hours, no STSP, bleomycin mU by row: r9 160, r10 80, r11 40, r12 20, r13 10, r14 5): 1.0
